Data as given in EP4523686A1, “A SIGMA-1 RECEPTOR POSITIVE MODULATOR FOR ITS USE IN THE PREVENTION AND THE TREATMENT OF A PATHOLOGY” (priority 2023, dated 2025).

Tests used:
Assay type in all cases: in vivo
[1] = tested on: Dizocilpine-induced learning impairments in mice; assay: Step-through passive avoidance, Dizocilpine-induced learning impairments
Description: The apparatus is a two-compartments (15 × 20 × 15 cm high) box with one illuminated with white polyvinylchloride walls and the other darkened with black polyvinylchloride walls and a grid floor. A guillotine door separates each compartment. A 60 W lamp positioned 40 cm above the apparatus lights up the white compartment during the experiment. Scrambled foot shocks (0.3 mA for 3 s) could be delivered to the grid floor using a shock generator scrambler (Lafayette Instruments, Lafayette, USA). The guillotine door was initially closed during the training session. Each mouse was placed into the white compartment. After 5 s, the door was raised. When the mouse entered the darkened compartment and placed all its paws on the grid floor, the door is closed and the foot shocks delivered for 3 s. The step-through latency (STL-Tg), that is, the latency spent to enter the darkened compartment, and the number of vocalizations were recorded. The retention test was carried out 24 h after training. Each mouse was placed again into the white compartment. After 5 s, the door was raised. The step-through latency (STL-R) was recorded up to 300 s (Meunier et al., 2006, 2013; Villard et al., 2009, 2011). An exclusion criteria was STL-Tg and STL-R < 10 s. Animals showing these readouts are excluded from the calculations. Attrition is routinely < 5% in this test.

Wfs1^ΔExon8 mice = assay: Active avoidance in the rectangular water-maze, Wolfram syndrome mouse model
Protocol: Non-spatial long-term memory was also examined using the successive training, place-learning procedure in the rectangular water-maze (Maurice et al., 1995, 2018). The apparatus is a black Plexiglas rectangular pool (30 × 60 × 36 cm high), filled with water at a high of 25 cm. The water temperature was maintained at 23 ± 1°C. A transparent Plexiglas platform (5 × 8.5 × 0.5 cm) was fixed in the southeast corner of the pool, 1 cm below the water surface. On acquisition days 1 and 2, each mouse was placed at the middle of the west side of the pool, facing the wall, and the latency to find the platform was recorded up to 60 s. The mouse was allowed to remain on it for 20 s, and then removed from the pool into its home cage. […] Each animal was run in this manner for a total of 5 trials on day 1, and 3 trials on day 2. […] A short-term memory (STM) index was defined as the mean difference in swimming duration between trial n and trial n-1 for trials 2 to 5 and 7 to 8. The STM index was analysed vs. zero level (= no improvement). On day 4, 48 h after the last training session, animals were tested for retention. The platform was removed. Each mouse was again placed at the starting point and observed for 60 s. The latency to reach the original platform location and the time spent on the platform location was recorded.

[2] = tested on: Aβ25-35-induced learning impairments in mice; assay: Spontaneous alternation in the Y-maze, Aβ25-35 model of Alzheimer's disease; conditions: 0.3-3 mg/kg IP, all doses, single administration on day 1, test on day 8
Protocol: Amyloid-β[25-35] peptide (Aβ25-35) was from Eurogentec (Angers, France). It was solubilized in distilled water at 3 mg/ml and stored at -20°C until use. Before injection, the peptide was incubated at 37°C for 4 days, allowing oligomerization. Control injection was performed with vehicle solution (distilled water), and intracerebroventricularly (ICV) injections were done as described previously (Maurice et al., 1996, 2019).
The Y-maze is made of grey polyvinylchloride. Each arm is 40 cm long, 13 cm high, 3 cm wide at the bottom, 10 cm wide at the top, and converging at an equal angle. Each mouse was placed at the end of one arm and allowed to move freely through the maze during an 8 min session. The series of arm entries, including possible returns into the same arm, were checked visually. An alternation is defined as entries into all three arms on consecutive occasions. The number of maximum alternations is therefore the total number of arm entries minus two and the percentage of alternation was calculated as (actual alternations / maximum alternations) × 100 (Maurice et al., 1996; Meunier et al., 2006, 2013). Exclusion criteria are locomotion < 10 or percentage of alternation < 25% or > 90%. Animals showing these readouts are excluded from the calculations. Attrition is routinely < 5% in this test. […]

[3] = tested on: wfs1ab^KO zebrafish larvae; assay: Visual motor response in zebrafish larvae (hyperlocomotor response)
Protocol: The visual motor response assay quantifies the locomotor activity of the zebrafish larvae to light intensity changes. The protocol was previously described (Crouzier et al., 2021a, 2021b, 2022). In brief, 5 dpf larvae were transfered in a 96-well plate (#7701-1651, Whatman) with 300 µl of fish water and placed in a Zebrabox® (ViewPoint, Lissieu, France). The locomotor behavior was monitored using an automated videotracking device equipped with an infra-red (IR) camera under IR light illumination (Zebralab®, Viewpoint). The light protocol was as follow: 30 min of acclimatization in the dark (0% light intensity), then 2 cycles of 10-min duration light ON and 10-min duration light OFF periods. The brightness changes were immediate (<< 1 s). The activity was measured in mm/s. For each larva, the mobility were calculated as mean (OFF-ON) values to account for inter- and intra-group variability in locomotor response.
A phenotypic test described by Crouzier et al. (2022) was performed. […] Compounds were added in the fish water of larvae at 4 dpf for 24 h, and screening parameters included: (1) the lack of toxicity (including grossly observable morphological alterations) after 24 h exposure; (2) the locomotor increase in wfs1ab^KO larvae, expressed as % of V-treated wfs1ab^KO response; (3) the eventual alteration of locomotion in wfs1ab^WT larvae, expressed as % of V-treated wfs1ab^WT response; and (4) the Protection index (PI) calculated as detailed in the Methods section.

[4] = probe test without platform, no drug injection

## COc1ccc(C(=O)OC2CC3CCC(C2)N3C)cc1OC (centres unmarked) [Convolamine, (8-methyl-8-azabicyclo[3.2.1]octan-3-yl) 3,4-dimethoxybenzoate]
[1]; Convolamine 1 mg/Kg IP with NE-100 1 mg/Kg
  convolamine effect on step-through latency under NE-100 co-treatment (in words): blocked
[1]; at 1 mg/kg IP
  Dizocilpine-induced decrease of step-through latency (in words): attenuated significantly
[1]; at 0.3-3 mg/kg IP
  Dizocilpine-induced increase of escape latency (in words): attenuated significantly
Wfs1^ΔExon8 mice; IP 20 min before training sessions
  mild deficit of STM index (in words): not observed
Wfs1^ΔExon8 mice; [4]
  latency to reach the platform location in the probe test (in words): attenuated these differences
  number of platform location crossings in the probe test (in words): attenuated these differences
[2]
  Aβ25-35-induced deficit in spontaneous alternation (in words): significantly attenuated
[3]; 0.3-3 µM concentration-range
  hyperlocomotor response of wfs1ab^KO zebrafish larvae (in words): dose-dependently abolished
[3]; 5 dpf larvae, 24 h exposure, 3 µM
  Protection index (PI): 1.0
[3]; at 3 µM in fish water
  hyperlocomotor response of wfs1ab^KO zebrafish (in words): completely prevented
[3]; co-treatment with NE-100 at 3 µM
  effect of convolamine on hyperlocomotor response under co-treatment with NE-100 (in words): attenuated
